Data from EP0443862A1, “Triamine derivatives and their acid-addition salts” (SUMITOMO PHARMACEUTICALS COMPANY, LIMITED, priority 1990, dated 1991).

tested on: NMDA-induced tonic convulsion; experiment: Inhibition of NMDA-induced tonic convulsion in mice; assay type: in vivo; settings: Mus musculus, ip, 0.5 h, i.p., 30 minutes before NMDA injected intracerebroventicularly, read-out: Inhibition potency of NMDA-induced tonic convulsion (ED50; mg/kg, i.p.)
Description: A test compound was injected intraperitoneally in mice. After 30 minutes from the administration, NMDA was injected intracerebroventicularly, and it was observed whether there was a tonic convulsion. ED₅₀ (mg/kg, i.p.) was calculated out from the inhibition rates.

SMILES | ED50
c1ccc2c(NCCNCCNc3cccc4ccccc34)cccc2c1 [Example 2] | > 30 mg/kg
c1ccc2c(NCCCNCCNc3cccc4ccccc34)cccc2c1 [Example 4] | > 30 mg/kg
Clc1ccc(NCCNCCNc2ccc(Cl)c3ccccc23)c2ccccc12 [Example 5] | 24.8 mg/kg
c1cc2c(c(NCCNCCNc3cccc4c3CCCC4)c1)CCCC2 [Example 3] | > 30 mg/kg
c1cnc2c(NCCNCCNc3cccc4cccnc34)cccc2c1 [Example 1] | 16.4 mg/kg
